Laboratory results published in the NIST ThermoML archive (doi:10.1016/j.jct.2018.05.029).
“And” between values parts separate entries of the source, which are not always exact repeats. Identical values can stand only once.

Cc1cc2ccccc2[nH]1 [2-methylindole]
Settings | mass density | molar entropy [J/K/mol] | vapor or sublimation pressure
10 K, Crystal, Vacuum adiabatic calorimetry | – | 0.7816 | –
20 K, Crystal, Vacuum adiabatic calorimetry | – | 5.097 | –
30 K, Crystal, Vacuum adiabatic calorimetry | – | 11.88 | –
40 K, Crystal, Vacuum adiabatic calorimetry | – | 19.5 | –
50 K, Crystal, Vacuum adiabatic calorimetry | – | 27.26 | –
60 K, Crystal, Vacuum adiabatic calorimetry | – | 34.95 | –
70 K, Crystal, Vacuum adiabatic calorimetry | – | 42.45 | –
80 K, Crystal, Vacuum adiabatic calorimetry | – | 49.75 | –
90 K, Crystal, Vacuum adiabatic calorimetry | – | 56.85 | –
100 K, Crystal, Vacuum adiabatic calorimetry | – | 63.76 | –
120 K, Crystal, Vacuum adiabatic calorimetry | – | 77.12 | –
140 K, Crystal, Vacuum adiabatic calorimetry | – | 89.97 | –
160 K, Crystal, Vacuum adiabatic calorimetry | – | 102.47 | –
180 K, Crystal, Vacuum adiabatic calorimetry | – | 114.71 | –
200 K, Crystal, Vacuum adiabatic calorimetry | – | 126.76 | –
220 K, Crystal, Vacuum adiabatic calorimetry | – | 138.69 | –
240 K, Crystal, Vacuum adiabatic calorimetry | – | 150.54 | –
260 K, Crystal, Vacuum adiabatic calorimetry | – | 162.33 | –
280 K, Crystal, Vacuum adiabatic calorimetry | – | 174.1 | –
298.15 K, Crystal, Vacuum adiabatic calorimetry | – | 184.78 | –
298.15 K, Liquid, Vacuum adiabatic calorimetry | – | 224.56 | –
300 K, Crystal, Vacuum adiabatic calorimetry | – | 185.87 | –
300 K, Liquid, Vacuum adiabatic calorimetry | – | 225.95 | –
320 K, Crystal, Vacuum adiabatic calorimetry | – | 197.68 | –
320 K, Liquid, Vacuum adiabatic calorimetry | – | 240.78 | –
331.97 K, Crystal, Vacuum adiabatic calorimetry | – | 204.77 | –
331.97 K, Liquid, Vacuum adiabatic calorimetry | – | 249.48 | –
339.98 K, Liquid, Inclined piston gauge | – | – | 0.022 kPa
339.99 K, Liquid, Inclined piston gauge | – | – | 0.022 kPa
340 K, Liquid, Vacuum adiabatic calorimetry | – | 255.25 | –
349.98 K, Liquid, Inclined piston gauge | – | – | 0.0439 kPa
359.98 K, Liquid, Inclined piston gauge | – | – | 0.0849 kPa
360 K, Liquid, Vacuum adiabatic calorimetry | – | 269.41 | –
369.98 K, Liquid, Inclined piston gauge | – | – | 0.1565 kPa and 0.1564 kPa
379.98 K, Liquid, Inclined piston gauge | – | – | 0.2769 kPa
380 K, Liquid, Vacuum adiabatic calorimetry | – | 283.28 | –
389.98 K, Liquid, Inclined piston gauge | – | – | 0.4731 kPa
399.97 K, Liquid, Inclined piston gauge | – | – | 0.7822 kPa
400 K, Liquid, Vacuum adiabatic calorimetry | – | 296.88 | –
409.97 K, Liquid, Inclined piston gauge | – | – | 1.255 kPa
419.96 K, Liquid, Inclined piston gauge | – | – | 1.958 kPa
420 K, Liquid, Vacuum adiabatic calorimetry | – | 310.21 | –
424.96 K, Liquid, Inclined piston gauge | – | – | 2.423 kPa
424.97 K, Liquid, Inclined piston gauge | – | – | 2.423 kPa
427.25 K, Liquid, Twin ebulliometer | – | – | 2.666 kPa
429.96 K, Liquid, Inclined piston gauge | – | – | 2.979 kPa
437.34 K, Liquid, Twin ebulliometer | – | – | 4 kPa
440 K, Liquid, Vacuum adiabatic calorimetry | – | 323.28 | –
444.87 K, Liquid, Twin ebulliometer | – | – | 5.333 kPa
456.04 K, Liquid, Twin ebulliometer | – | – | 7.999 kPa
460 K, Liquid, Small sample (50 mg) DSC | – | 336.12 | –
464.4 K, Liquid, Twin ebulliometer | – | – | 10.67 kPa
471.16 K, Liquid, Twin ebulliometer | – | – | 13.33 kPa
478.17 K, Liquid, Twin ebulliometer | – | – | 16.66 kPa
480 K, Liquid, Small sample (50 mg) DSC | – | 348.73 | –
483.99 K, Liquid, Twin ebulliometer | – | – | 19.93 kPa
491.65 K, Liquid, Twin ebulliometer | – | – | 25.02 kPa and 25.02 kPa
499.35 K, Liquid, Twin ebulliometer | – | – | 31.18 kPa
500 K, Liquid, Small sample (50 mg) DSC | – | 361.11 | –
507.08 K, Liquid, Twin ebulliometer | – | – | 38.56 kPa
514.86 K, Liquid, Twin ebulliometer | – | – | 47.38 kPa
520 K, Liquid, Small sample (50 mg) DSC | – | 373.29 | –
522.68 K, Liquid, Twin ebulliometer | – | – | 57.82 kPa
530.55 K, Liquid, Twin ebulliometer | – | – | 70.12 kPa
538.45 K, Liquid, Twin ebulliometer | – | – | 84.53 kPa
540 K, Liquid, Small sample (50 mg) DSC | – | 385.27 | –
546.4 K, Liquid, Twin ebulliometer | – | – | 101.33 kPa
554.39 K, Liquid, Twin ebulliometer | – | – | 120.79 kPa
560 K, Liquid, Small sample (50 mg) DSC | – | 397.05 | –
562.43 K, Liquid, Twin ebulliometer | – | – | 143.25 kPa
570.5 K, Liquid, Twin ebulliometer | – | – | 169.02 kPa
578.62 K, Liquid, Twin ebulliometer | – | – | 198.49 kPa
580 K, Liquid, Small sample (50 mg) DSC | – | 408.64 | –
586.77 K, Liquid, Twin ebulliometer | – | – | 232.02 kPa
594.97 K, Liquid, Twin ebulliometer | – | – | 270.02 kPa
600 K, Liquid, Small sample (50 mg) DSC | – | 420.05 | –
620 K, Liquid, Small sample (50 mg) DSC | – | 431.28 | –
640 K, Liquid, Small sample (50 mg) DSC | – | 442.34 | –
660 K, Liquid, Small sample (50 mg) DSC | – | 453.23 | –
680 K, Liquid, Small sample (50 mg) DSC | – | 463.97 | –
700 K, Liquid, Small sample (50 mg) DSC | – | 474.57 | –
788.8 K, Gas, DSC | 176.5 kg/m3 | – | –
795.1 K, Liquid, DSC | 470.4 kg/m3 | – | –
800.7 K, Liquid, DSC | 433.9 kg/m3 | – | –
802.9 K, Liquid, DSC | 399.3 kg/m3 | – | –
803 K, Gas, DSC | 183.3 kg/m3 | – | –
803.6 K, Liquid, DSC | 360.9 kg/m3 | – | –
807 K, Gas, DSC | 238.4 kg/m3 | – | –
809.2 K, Gas, DSC | 264.7 kg/m3 | – | –
809.6 K, Gas, DSC | 268.7 kg/m3 and 299.5 kg/m3 | – | –

101.33 kPa, Liquid
Settings | mass density [kg/m3]
298.15 K, From volume and mass of a pressed pellet | 1070
342 K, Pycnometric method | 1020

Settings | Triple point temperature [K]
Crystal, Adiabatic calorimetry | 331.97
